The nature of experiment [1]: Inhibition of reverse transcriptase F227L/V106A double mutant in HIV-1 infected in human MT4 cells assessed as reduction in virus-induced cytopathic effect incubated for 5 days by MTT assay. A general note: Cytopathic effects are the visible damage that an infection or toxin causes in cultured cells.
A short description of experiment [2]: Inhibition of reverse transcriptase Y188L mutant in HIV-1 infected in human MT4 cells assessed as reduction in virus-induced cytopathic effect incubated for 5 days by MTT assay.
Experiment [3] can be described thus: Inhibition of reverse transcriptase L100I mutant in HIV-1 infected in human MT4 cells assessed as reduction in virus-induced cytopathic effect incubated for 5 days by MTT assay.
Experiment [4] can be described thus: Inhibition of reverse transcriptase E138K mutant in HIV-1 infected in human MT4 cells assessed as reduction in virus-induced cytopathic effect incubated for 5 days by MTT assay.
Experiment [5] is described as follows: Inhibition of reverse transcriptase K103N mutant in HIV-1 infected in human MT4 cells assessed as reduction in virus-induced cytopathic effect incubated for 5 days by MTT assay.

pEC50: −log10 of the molar value.

As a reminder, the pEC50 is the negative decadic logarithm of the EC50, by convention in mol/L.

On to `Cc1cc(/C=C/C#N)cc(C)c1Oc1nc(Nc2ccc(CN3CCN(S(N)(=O)=O)CC3)cc2)nc2ccsc12`, for which the pEC50 in experiment [1] was 6.76; in experiment [2], 6.26; in experiment [3], 7.37; in experiment [4] it was 7.59.

Take `Cc1cc(/C=C/C#N)cc(C)c1Oc1nc(Nc2ccc(CN3CCN(S(C)(=O)=O)CC3)cc2)nc2ccsc12`: the pEC50 is 5.66 in experiment [1]; less than 4.68 in experiment [2]; 5.81 in experiment [3]; 6.01 in experiment [4]; 6.45 in experiment [5].

For `Cc1cc(/C=C/C#N)cc(C)c1Oc1nc(Nc2ccc(CN3CCN(S(N)(=O)=O)CC3)cc2)nc2sccc12`, the negative logarithm of the EC50 (pEC50) was 6.43 in experiment [1]; 6.06 in experiment [2]; 7.82 in experiment [3]; 7.60 in experiment [4]; 8.15 in experiment [5].

On to `Cc1cc(/C=C/C#N)cc(C)c1Oc1nc(Nc2ccc(CN3CCN(S(C)(=O)=O)CC3)cc2)nc2sccc12`, for which the pEC50 in experiment [1] was 5.79; in experiment [2], 5.03; in experiment [3] it was 6.41; in experiment [4], 6.79; in experiment [5] it was 7.27.

As for `Cc1cc(/C=C/C#N)cc(C)c1Oc1nc(Nc2ccc(N3CCN(S(N)(=O)=O)CC3)cc2)nc2ccsc12`, the pEC50 is 6.69 in experiment [1]; 4.64 in experiment [2]; 6.12 in experiment [3]; 7.37 in experiment [4]; 7.68 in experiment [5].

For the compound `Cc1cc(/C=C/C#N)cc(C)c1Oc1nc(Nc2ccc(N3CCN(S(C)(=O)=O)CC3)cc2)nc2ccsc12`, the pEC50 was 6.55 in experiment [1]; 5.29 in experiment [2]; 6.03 in experiment [3]; 7.06 in experiment [4]; 7.25 in experiment [5].

For the compound `Cc1cc(/C=C/C#N)cc(C)c1Oc1nc(Nc2ccc(N3CCN(S(N)(=O)=O)CC3)cc2)nc2sccc12`, the pEC50 was 6.48 in experiment [1]; 4.99 in experiment [2]; 6.39 in experiment [3]; 7.30 in experiment [4]; 7.51 in experiment [5].

Consider `Cc1cc(/C=C/C#N)cc(C)c1Oc1nc(Nc2ccc(N3CCN(S(C)(=O)=O)CC3)cc2)nc2sccc12`, for which the pEC50 in experiment [1] is 5.71; in experiment [2] it was 4.16; in experiment [3], 5.48; in experiment [4], 6.39; in experiment [5], 6.66.

In the case of `Cc1cc(/C=C/C#N)cc(C)c1Oc1nc(Nc2ccc(N3CCCC(NS(N)(=O)=O)C3)cc2)nc2ccsc12` (stereo unspecified), the pEC50 in experiment [1] is 6.42; in experiment [2], 5.17; in experiment [3], 5.78; in experiment [4], 6.91; in experiment [5], 6.99.

For the compound `Cc1cc(/C=C/C#N)cc(C)c1Oc1nc(Nc2ccc(N3CCCC(NS(C)(=O)=O)C3)cc2)nc2ccsc12` (stereo unspecified), the pEC50 is 4.78 in experiment [1], 3.82 in experiment [2], 5.17 in experiment [3] and 5.89 in experiment [4].

Consider `Cc1cc(/C=C/C#N)cc(C)c1Oc1nc(Nc2ccc(N3CCCC(NS(N)(=O)=O)C3)cc2)nc2sccc12` (stereo unspecified), for which the pEC50 in experiment [1] was 5.44; in experiment [2], 4.05; in experiment [3] it was 5.63; in experiment [4], 6.21; in experiment [5], 6.35.

Consider `Cc1cc(/C=C/C#N)cc(C)c1Oc1nc(Nc2ccc(N3CCCC(NS(C)(=O)=O)C3)cc2)nc2sccc12` (stereo unspecified), for which the pEC50 is 5.07 in experiment [3], 5.37 in experiment [4] and 5.87 in experiment [5].

(Values after BindingDB's records for doi:10.1016/j.ejmech.2021.113204 (Shandong University, 2021).)
